Results on three compounds are retold here after PMC12592400, “A unique inhibitor conformation selectively targets the DNA polymerase PolC of Gram-positive priority pathogens” (Nature Communications, 2025).

“And” between values parts separate entries of the source, which are not always exact repeats. Equal values may be shown once. A value given as a limit tells only on which side of the number the result lay.

For one data set, the system named is E. faecium ATCC 700221. Put plainly: Frequency of resistance (FOR) study. In kind it is cell-based, Enterococcus faecium. As to conditions: for CFU total count (48h): replicates 1-2; for Number of reduced susceptible colonies: Suppl. Table 2. As for the experimental part:
Strains with reduced susceptibility to ACX compounds were generated by WuXi Apptec on behalf of Acurx Pharmaceuticals, Inc., using E. faecium ATCC 700221 as parental strain.
Agar MICs for the wild-type strain were determined on Blood agar (Huankai). Compounds and linezolid were dissolved in 100% DMSO and vancomycin in ultrapure water. Strains were inoculated onto agar plates, incubated at 37 °C for 20-24 h after which colonies were suspended in sterile 0.9% saline at different bacterial concentrations. 5 μL of bacterial suspensions was individually spotted on agar plates supplemented with compounds at different concentrations, resulting in final concentrations of 10^–1, 10^–2, 10^–3, 10^–4, 10^–5, 10^–6, and 10^–7 per spot. After incubation for 20-24 h, bacterial growth was assessed by visual inspection.
For frequency of resistance (FOR) studies, colonies from the agar plate were suspended into sterile 0.9% saline to get 10^8-10^9 CFU bacterial cells per mL. […] The suspensions were also serially diluted with 0.9% saline and spotted onto agar to determine the actual inoculum. All agar plates were incubated at 37 °C for 48 h. FOR was defined as colony number on each compound-containing plate per CFU number of actual inoculum. Resistant colonies were subcultured on the corresponding compound plates to confirm that colonies were resistant and stable.

In a further data set the target is T1, E. coli Pol IIIα (Escherichia coli, UniProt P10443).
T1 construct: made in house
T1 sequence (P10443 whole entry): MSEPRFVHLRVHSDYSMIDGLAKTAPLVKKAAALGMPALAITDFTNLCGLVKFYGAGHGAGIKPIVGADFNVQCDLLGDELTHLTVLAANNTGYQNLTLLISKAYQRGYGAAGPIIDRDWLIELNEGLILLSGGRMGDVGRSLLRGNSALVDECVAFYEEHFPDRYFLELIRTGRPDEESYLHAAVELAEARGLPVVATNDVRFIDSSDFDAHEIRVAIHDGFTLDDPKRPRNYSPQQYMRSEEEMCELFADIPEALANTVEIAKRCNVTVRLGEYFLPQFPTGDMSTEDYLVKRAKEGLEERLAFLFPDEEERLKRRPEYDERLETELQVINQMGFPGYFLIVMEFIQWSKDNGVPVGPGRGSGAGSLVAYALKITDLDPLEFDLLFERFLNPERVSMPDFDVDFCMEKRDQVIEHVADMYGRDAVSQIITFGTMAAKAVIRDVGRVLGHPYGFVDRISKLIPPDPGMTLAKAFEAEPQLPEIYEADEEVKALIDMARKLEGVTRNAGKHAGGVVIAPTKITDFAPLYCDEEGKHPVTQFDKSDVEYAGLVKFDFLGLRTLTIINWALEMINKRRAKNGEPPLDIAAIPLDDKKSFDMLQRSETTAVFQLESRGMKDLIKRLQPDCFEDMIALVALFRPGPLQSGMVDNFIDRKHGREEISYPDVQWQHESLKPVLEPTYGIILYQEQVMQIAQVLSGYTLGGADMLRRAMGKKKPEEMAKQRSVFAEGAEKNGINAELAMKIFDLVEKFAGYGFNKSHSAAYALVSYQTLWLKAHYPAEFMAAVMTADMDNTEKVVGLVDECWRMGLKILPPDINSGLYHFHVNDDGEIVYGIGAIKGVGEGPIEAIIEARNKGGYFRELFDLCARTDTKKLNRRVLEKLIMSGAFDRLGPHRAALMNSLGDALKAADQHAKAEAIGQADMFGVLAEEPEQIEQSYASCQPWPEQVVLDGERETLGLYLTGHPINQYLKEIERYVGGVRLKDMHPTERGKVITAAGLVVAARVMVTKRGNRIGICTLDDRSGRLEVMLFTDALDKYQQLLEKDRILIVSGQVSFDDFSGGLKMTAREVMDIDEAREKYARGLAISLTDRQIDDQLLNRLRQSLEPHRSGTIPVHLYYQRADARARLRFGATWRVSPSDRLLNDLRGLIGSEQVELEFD
The experiment in a line: Real-time DNA primer extension assay. As to conditions: for rate of activity (slope of fluorescence intensity change over time): Fig. 1f source data, E. coli PolIIIα; for IC50: Fig. 1f, n = 3, read-out: PolIIIα IC50. Also noted: key to rate of activity (slope of fluorescence intensity change over time): slope of fluorescence intensity change per second (made positive). In kind it is biochemical. From the text: DnaE from E. coli was purified as described before[33],[34].
Polymerase activity was monitored in real-time[31],[32] with a 42-nt long 5’ carboxyfluorescein-labelled DNA oligonucleotide template strand (DNASP8_42) annealed to a 30-nt primer oligonucleotide (oMU014). Polymerase activity in this assay is monitored by measuring fluorescence quenching of the labelled DNA template as a result of primer extension by PolC (for details see Supplementary Fig. 1b, c). Both primers were HPLC purified. Primer extension assays were performed in Reaction Buffer (see Gel-based polymerase and exonuclease assays) supplemented with 0.5 mg/mL BSA, 0.05% Tween20 and 25 uM of each dNTP (SRB) in 384-well Black Round Bottom plates (Corning 4514). The polymerase was diluted in the SRB and incubated for at least 5 min in the presence of inhibitor or solvent, with a final solvent concentration of 1%. The reaction was initiated by the addition of an equal volume of DNA substrate in SRB as described below. Fluorescence emission data was collected with a BMG Labtech PHERAstar FSX reader for 30 min at room temperature.
Compounds were dispensed with an Echo acoustic liquid handler (Beckman Coulter). All compounds were dissolved to 1 mM and 10 mM stocks in 100% DMSO and transferred to Echo LDV or PP source plates (Labcyte, Inc., CA), then dispensed to 384-well plates with a Labcyte Echo550 or Echo650 acoustic dispenser at volumes of 2.5 to 100 nL per well. […] A Mantis microfluidic liquid dispenser (Formulatrix) was used to dispense 5 µL polymerase and 5 µL substrate DNA (individually diluted in SRB) per well. […] The final concentration of DNA was 70 nM.
Data were analysed and standard error of the means (SEM) determined in Prism 8.4.2 and 10.2.3 (GraphPad). Raw time-course polymerase activity was plotted against time, with SEM of triplicates determined. The rate of activity (represented by signal quenching) was determined during the first 8 min (linear stage) by calculating the slope of fluorescence intensity change (converted to a positive value) over time (in seconds). The slopes were then normalized to percentage activity (%); per ‘replicate range’, 100% activity was defined as polymerase activity in the absence of inhibitor (polymerase control), and 0% activity was determined in the absence of polymerase (DNA signal; negative control). The SEM was determined between ‘replicate ranges’. The IC50 was determined using the dose-response (inhibition) nonlinear regression ‘[Inhibitor] vs. response (three parameters)’ without constraints.

Data set [1] deals with Clostridioides difficile infection. Also noted: method as in PMID 35862742, PMID 35134880. As to conditions: patients cured of CDI through treatment with IBZ; cited from earlier work.
Details of data set [2]: method as in PMID 35134880, PMID 32892222. As to conditions: cited from earlier work.
For data set [3] the following is noted: cited from earlier work.
The subject of data set [4] is C. difficile strain carrying a F1258L mutation. Put plainly: MIC of C. difficile strain obtained by one-step passage. The format is cell-based. As to conditions: Clostridioides difficile.

Consider `CC(=O)NC[C@H]1CN(c2ccc(N3CCOCC3)c(F)c2)C(=O)O1` [LZD, linezolid], for which the “CFU total count (48h)” value in the data set with E. faecium ATCC 700221 (1x MIC (ACX-728 2, ACX-641 0.5, ACX-671 1, ACX-763 4, Linezolid 2 mg/L), inoculum 1.3E+07 CFU/plate) is “TMTC”; in the data set with E. faecium ATCC 700221 (1x MIC (ACX-728 2, ACX-641 0.5, ACX-671 1, ACX-763 4, Linezolid 2 mg/L), inoculum 1.3E+08 CFU/plate) it was “TMTC”; with E. faecium ATCC 700221 (2x MIC (ACX-728 4, ACX-641 1, ACX-671 2, ACX-763 8, Linezolid 4 mg/L), inoculum 1.3E+07 CFU/plate), “TMTC”; in the data set on E. faecium ATCC 700221 (2x MIC (ACX-728 4, ACX-641 1, ACX-671 2, ACX-763 8, Linezolid 4 mg/L), inoculum 1.3E+08 CFU/plate) it was “TMTC”; in the data set with E. faecium ATCC 700221 (4x MIC (ACX-728 8, ACX-641 2, ACX-671 4, ACX-763 16, Linezolid 8 mg/L), inoculum 1.3E+07 CFU/plate), “TMTC”; with E. faecium ATCC 700221 (4x MIC (ACX-728 8, ACX-641 2, ACX-671 4, ACX-763 16, Linezolid 8 mg/L), inoculum 1.3E+08 CFU/plate), “TMTC”. Further, the “CFU total count (48h)” value in the data set with E. faecium ATCC 700221 (8x MIC (ACX-728 16, ACX-641 4, ACX-671 8, ACX-763 32, Linezolid 16 mg/L), inoculum 1.3E+07 CFU/plate) was “TMTC”; in the data set on E. faecium ATCC 700221 (8x MIC (ACX-728 16, ACX-641 4, ACX-671 8, ACX-763 32, Linezolid 16 mg/L), inoculum 1.3E+08 CFU/plate), “TMTC”; with E. faecium ATCC 700221 (16x MIC (ACX-728 32, ACX-641 8, ACX-671 16, ACX-763 64, Linezolid 32 mg/L), inoculum 1.3E+07 CFU/plate) it was “TMTC”; in the data set on E. faecium ATCC 700221 (16x MIC (ACX-728 32, ACX-641 8, ACX-671 16, ACX-763 64, Linezolid 32 mg/L), inoculum 1.3E+08 CFU/plate), “TMTC”. Besides, the “Number of reduced susceptible colonies” value is reported as “TMTC” in the data set with E. faecium ATCC 700221 (Fold MIC 2, 1.3E+07 cells plated); “TMTC” with E. faecium ATCC 700221 (Fold MIC 2, 1.3E+08 cells plated); “TMTC” with E. faecium ATCC 700221 (Fold MIC 4, 1.3E+07 cells plated); “TMTC” with E. faecium ATCC 700221 (Fold MIC 4, 1.3E+08 cells plated); “TMTC” in the data set on E. faecium ATCC 700221 (Fold MIC 8, 1.3E+07 cells plated); “TMTC” with E. faecium ATCC 700221 (Fold MIC 8, 1.3E+08 cells plated). The “Number of reduced susceptible colonies” value in the data set with E. faecium ATCC 700221 (Fold MIC 16, 1.3E+07 cells plated) is “TMTC”; in the data set on E. faecium ATCC 700221 (Fold MIC 16, 1.3E+08 cells plated) it was “TMTC”.

Consider `O=c1[nH]c(NCc2ccc3c(c2)OC(F)(F)O3)nc2c(F)nn(CCO)c12` [ACX-801, 5-(((2,2-difluorobenzo[d][1,3]dioxol-5-yl)methyl)amino)-3-fluoro-1-(2-hydroxyethyl)-1,6-dihydro-7H-pyrazolo[4,3-d]pyrimidin-7-one], for which the “rate of activity (slope of fluorescence intensity change over time)” value at E. coli Pol IIIα (inhibitor 2.5 uM) is 16.3 and 12.4 and 15.4; at E. coli Pol IIIα (inhibitor 4 uM), 16.6 and 16.5 and 16.7; on E. coli Pol IIIα (inhibitor 12.5 uM) it was 21.1 and 17.1 and 17.2; at E. coli Pol IIIα (inhibitor 20 uM), 17.9 and 17.4 and 20.0; at E. coli Pol IIIα (inhibitor 30 uM), 18.5 and 16.7 and 17.5; at E. coli Pol IIIα (inhibitor 45 uM) it was 13.8 and 14.5 and 13.7. Moreover, the “rate of activity (slope of fluorescence intensity change over time)” value is 17.1 and 17.3 and 12.6 on E. coli Pol IIIα (inhibitor 67.5 uM); 15.2 and 13.3 and 12.6 at E. coli Pol IIIα (inhibitor 100 uM). For the same compound, at E. coli Pol IIIα, the 50% inhibitory concentration (IC50) (commonly the midpoint of a concentration-inhibition curve) was over 100 µM.

Turning to `O=c1[nH]c(NCc2ccc(Cl)c(Cl)c2)nc2ncn(CCN3CCOCC3)c12` [IBZ, N^2-(3,4-dichlorobenzyl)-7-(2-[1-morpholinyl]ethyl)guanine], the “recurrence of CDI during the post-treatment study period” value in data set [1] is reported as “no recurrence was observed”. Further, the solubility entry in data set [2] is “low”. Besides, in data set [3], the absorption entry is “poorly absorbed”. Further, the faecal levels in data set [3] is on record as over 1000 μg/g stool. For the same compound, the MIC (in general, the least concentration at which growth counts as inhibited) in data set [4] is 64 µg/mL. The “rate of activity (slope of fluorescence intensity change over time)” value at E. coli Pol IIIα (inhibitor 2.5 uM) is 18.2 and 16.5 and 13.6; at E. coli Pol IIIα (inhibitor 4 uM) it was 15.9 and 17.9 and 15.0; on E. coli Pol IIIα (inhibitor 12.5 uM), 25.0 and 21.1 and 24.7; at E. coli Pol IIIα (inhibitor 20 uM), 29.3 and 21.9 and 23.5; on E. coli Pol IIIα (inhibitor 30 uM), 26.6 and 21.8 and 26.2; at E. coli Pol IIIα (inhibitor 45 uM) it was 27.8 and 27.6 and 30.0. The “rate of activity (slope of fluorescence intensity change over time)” value on E. coli Pol IIIα (inhibitor 67.5 uM) is 28.5 and 30.7 and 23.6; on E. coli Pol IIIα (inhibitor 100 uM), 31.4 and 35.8 and 26.7. Moreover, on E. coli Pol IIIα, the IC50 was over 100 µM.
